What all share (assay type): cell-based, human
Assay [1] has as its system sAPPα. The assay is described as follows: sAPPα in FAD1 iPS cell-derived nerve cells (secondary screening). Also on record: scale not given here. The settings on record: secondary screening, FAD1 iPS cell-derived nerve cells. The method, then: (§1) To further study reproducibility of the candidate drugs obtained by the primary screening, secondary screening was conducted. In addition to Aβ40, Aβ42, Aβ42/40 ratio, Aβ38, Aβ43, sAPPα, sAPPβ were also studied and each numerical value was obtained.

In assay [2] the test system is Aβ. The assay is described as follows: Aβ pathology (Aβ amount in medium) in cerebral cortex nerve cells induced from FAD1 patient iPS cells. As to conditions: for Aβ pathology / Aβ lesion (Aβ amount): FAD1 nerve cells; for Aβ pathology: low dose; for Aβ lesion (Aβ amount): compounds added 8 days after differentiation induction, Aβ amount two days later.
From the text: To perform induction from iPS cells to the cerebral cortex nerve early and with high reproducibility, iPS cells introduced with human Neurogenin 2 gene (NGN2) linked to doxycycline-inducible promoter by using PiggyBac were used (FIG. 1a, FIG. 1b, FIG. 4a and FIG. 4b). IPS cells prepared from 4 patients with familial Alzheimer's disease (FAD), 2 patients with sporadic Alzheimer's disease (SAD) and 4 healthy individuals (HC) were used. The iPS cells were established by the method described in Okita K et al., Nature. […]
as §1

In assay [3] the test system is Aβ42. The assay is described as follows: Aβ42 in FAD1 iPS cell-derived nerve cells (primary/secondary screening, dose dependency). Put shortly: (§2)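 Cerebral cortex neurons were induced from FAD1 patient iPS cells by doxycycline-inducible NGN2, delivered by PiggyBac. Aβ40 and Aβ42 in the culture medium gave the Aβ42/40 ratio, with dose dependency examined in primary and secondary screens. The secondary screen also covered Aβ38, Aβ43, sAPPα and sAPPβ.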

Assay [4] relates to sAPPβ. Description: sAPPβ in FAD1 iPS cell-derived nerve cells (secondary screening). Also noted: sAPPβ: scale not given here. The settings on record: for sAPPβ: secondary screening, FAD1 iPS cell-derived nerve cells. The method, then:
as §1

In assay [5] the test system is Aβ43. Description: Aβ43 in FAD1 iPS cell-derived nerve cells (secondary screening). Also noted: scale not given here. The protocol:
as §1

For assay [6], the system named is Aβ42/40 ratio. The assay is described as follows: Aβ42/40 ratio in FAD1 iPS cell-derived nerve cells (primary/secondary screening, dose dependency). The settings on record: secondary screening. Put shortly:
as §2

The test system of assay [7] is Aβ38. Description: Aβ38 in FAD1 iPS cell-derived nerve cells (secondary screening). Also noted: scale not given here. The method, then:
as §1

The subject of assay [8] is Aβ40. The settings on record: secondary screening, FAD1 iPS cell-derived nerve cells, numerical value (Aβ change rate).
From the text: To perform induction from iPS cells to the cerebral cortex nerve early and with high reproducibility, iPS cells introduced with human Neurogenin 2 gene (NGN2) linked to doxycycline-inducible promoter by using PiggyBac were used (FIG. 1a, FIG. 1b, FIG. 4a and FIG. 4b). IPS cells prepared from 4 patients with familial Alzheimer's disease (FAD), 2 patients with sporadic Alzheimer's disease (SAD) and 4 healthy individuals (HC) were used. The iPS cells were established by the method described in Okita K et al., Nature.
Structural formulas (those in the form of salt or halide are also described as free form) and the general names of the candidate compounds are shown in Table 1.
as §1

The mark [9] stands for this setting: secondary screening, FAD1 iPS cell-derived nerve cells, numerical value (Aβ change rate).

Where two headings read alike, the source gives them in different places.

`CC(C)C[C@H]1C(=O)N2CCC[C@H]2[C@]2(O)O[C@](NC(=O)[C@@H]3C=C4c5cccc6[nH]c(Br)c(c56)C[C@H]4N(C)C3)(C(C)C)C(=O)N12` [compound 52, BROMOCRIPTINE]: in assay [1], the sAPPα was 1.18. Moreover, the “Aβ suppressive effect (dopamine series)” value in assay [2] was “show effects”. In assay [3] (setting [9]), this compound returned an Aβ42 of 0.63. The “action suggested from the sAPP metabolism” value in assay [4] (sAPPα, sAPPβ, sAPPβ/α ratio) is reported as “BSI-like action”. This compound came in with a sAPPβ in assay [4] of 0.79. In assay [5], this compound displayed an Aβ43 of 0.65. The “Ratio Aβ42/40” value in assay [6] is on record as 0.64. In assay [7], this compound yielded an Aβ38 of 0.97.

DESOXYCORTICOSTERONE [compound 98] registered a sAPPα in assay [1] of 0.88. The Aβ40 in assay [8] was 1. In assay [3] (setting [9]), the Aβ42 worked out at 0.9. The compound further showed a sAPPβ in assay [4] of 0.87. Besides, the Aβ43 in assay [5] amounted to 0.89. The “Ratio Aβ42/40” value in assay [6] amounted to 0.9. This compound also yielded an Aβ38 in assay [7] of 1.09.

`CN[C@H](CC(C)C)C(=O)N[C@H]1C(=O)N[C@@H](CC(N)=O)C(=O)N[C@H]2C(=O)N[C@H]3C(=O)N[C@H](C(=O)N[C@H](C(=O)O)c4cc(O)cc(O)c4-c4cc3ccc4O)[C@H](O)c3ccc(c(Cl)c3)Oc3cc2cc(c3O[C@@H]2O[C@H](CO)[C@@H](O)[C@H](O)[C@H]2O[C@H]2C[C@](C)(N)[C@H](O)[C@H](C)O2)Oc2ccc(cc2Cl)[C@H]1O` [compound 105, VANCOMYCIN]: the sAPPα in assay [1] is given as 1.33. Also, in assay [8], the Aβ40 was 1.01. This compound yielded an Aβ42 in assay [3] (setting [9]) of 1.06. The same compound yielded a sAPPβ in assay [4] of 1.36. In assay [5], this compound returned an Aβ43 of 1.2. Besides, the “Ratio Aβ42/40” value in assay [6] was determined as 1.05. Moreover, in assay [7], the Aβ38 turned out to be 1.29.

In the case of CEFAMANDOLE [compound 66], in assay [1], the sAPPα is listed as 0.79. Also, the Aβ40 in assay [8] was 1.08. The Aβ42 in assay [3] (setting [9]) is recorded as 0.97. Moreover, the sAPPβ in assay [4] was determined as 0.78. For the same compound, in assay [5], the Aβ43 stood at 1.11. For the same compound, in assay [6], the “Ratio Aβ42/40” value was 0.9. This compound also displayed an Aβ38 in assay [7] of 1.11.

As to BITOSCANATE [compound 123], in assay [1], the sAPPα was 0.76. In addition, in assay [8], the Aβ40 was 0.93. The same compound returned an Aβ42 in assay [3] (setting [9]) of 0.89. In assay [4], this compound showed a sAPPβ of 0.73. In addition, the Aβ43 in assay [5] is 1. Moreover, the “Ratio Aβ42/40” value in assay [6] was determined as 0.96. The compound also had an Aβ38 in assay [7] of 1.01.

As to `CC1=C(CC(=O)O)c2cc(F)ccc2/C1=C\c1ccc([S+](C)[O-])cc1` (stereo not drawn) [sulindac], the Aβ pathology entry in assay [2] is “not improved”.

In turn, RIFAXIMIN [compound 97] displayed a sAPPα in assay [1] of 0.91. In assay [8], the Aβ40 amounted to 0.92. The compound further gave an Aβ42 in assay [3] (setting [9]) of 0.84. Also, the sAPPβ in assay [4] stood at 0.95. This compound also displayed an Aβ43 in assay [5] of 0.92. Further, the “Ratio Aβ42/40” value in assay [6] amounted to 0.91. In assay [7], this compound registered an Aβ38 of 1.09.

Regarding `CC(N)Cc1ccccc1` (stereo not drawn) [amphetamine], the “Aβ suppressive effect (dopamine series)” value in assay [2] was “show effects”.

Take TELITHROMYCIN [compound 108]: in assay [1], the sAPPα came to 0.71. This compound also gave an Aβ40 in assay [8] of 0.99. In assay [3] (setting [9]), this compound had an Aβ42 of 0.85. This compound also yielded a sAPPβ in assay [4] of 0.68. This compound yielded an Aβ43 in assay [5] of 0.84.

Take `CC(NC(=O)c1cc(C(=O)NC(Cc2ccccc2)C(O)CNC2CC2)cc(N(C)S(C)(=O)=O)c1)c1ccccc1` (racemic) [RACE inhibitor IV]: the “Aβ lesion (Aβ amount)” value in assay [2] is reported as “improved Aβ lesion”.

For the compound `NCCc1ccc(O)c(O)c1` [compound 90, DOPAMINE], in assay [1], the sAPPα was 0.91. In assay [2] (neuron derived from iPS cell (FAD1)), the “Aβ suppressive effect (dopamine series)” value is “show effects”. In assay [3] (setting [9]), this compound gave an Aβ42 of 0.88. The compound also returned a sAPPβ in assay [4] of 0.95. Moreover, the Aβ43 in assay [5] was found to be 0.96. In addition, in assay [6], the “Ratio Aβ42/40” value is given as 0.92. In assay [7], the Aβ38 was determined as 1.01.

As to `COc1cc(C)c(/C=C/C(C)=C/C=C/C(C)=C/C(=O)O)c(C)c1C` [acitretin], in assay [2], the “Aβ lesion (Aβ amount)” value is “improved Aβ lesion”.

CINCHONINE [compound 24] came in with a sAPPα in assay [1] of 0.76. The compound also returned an Aβ40 in assay [8] of 0.87. In assay [3] (setting [9]), the Aβ42 worked out at 0.88. In assay [4], this compound gave a sAPPβ of 0.68. This compound displayed an Aβ43 in assay [5] of 0.81.

As to `CC(C)[C@H](O)C(=O)N[C@@H](C)C(=O)N[C@@H]1C(=O)N(C)CCc2ccccc21` [semagacestat], the “Aβ lesion (Aβ amount)” value in assay [2] is “improved Aβ lesion”. Further, the Aβ42 entry in assay [3] (FAD1 nerve cells, low dose) was “increased”.

As to `CC(C)C[C@H](C(=O)O)c1cc(-c2ccc(C(F)(F)F)cc2)cc(-c2ccc(C(F)(F)F)cc2)c1` [JNJ-40418677], in assay [2], the “Aβ lesion (Aβ amount)” value was “improved Aβ lesion”.

For `CC(C(=O)O)c1ccc(-c2ccccc2)c(F)c1` (stereo not drawn) [Flurbiprofen], in assay [2], the Aβ pathology result is “not improved”.

Compound CARBADOX [compound 29] registered a sAPPα in assay [1] of 0.86. The compound further gave an Aβ40 in assay [8] of 0.84. This compound also yielded an Aβ42 in assay [3] (setting [9]) of 0.74. The same compound showed a sAPPβ in assay [4] of 0.78. Moreover, in assay [5], the Aβ43 was 0.76. In addition, the “Ratio Aβ42/40” value in assay [6] was found to be 0.88. This compound also had an Aβ38 in assay [7] of 0.87.
